From ChEMBL document CHEMBL1821691, “Cytotoxic C21 and C22 terpenoid-derived metabolites from the sponge Ircinia sp” (J Nat Prod, 2011)

Assays:
K562 = test: Cytotoxicity against human K562 cells by XTT reagent based automated microculture tetrazolium assay; type: functional, cell-based
DLD-1 = test: Cytotoxicity against human DLD1 cells by XTT reagent based automated microculture tetrazolium assay; type: functional, cell-based
HepG2 = test: Cytotoxicity against human HepG2 cells by XTT reagent based automated microculture tetrazolium assay; type: functional, cell-based
[1] = Cytotoxicity against human Hep3B cells by XTT reagent based automated microculture tetrazolium assay; type: functional, cell-based, Hep 3B2

Compound | IC50 (K562) [µM] | IC50 (DLD-1) [µM] | IC50 (HepG2) [µM] | IC50 [1] [µM]
CC(=O)O[C@H](/C=C(\C)CC[C@@H](O)[C@]1(C)CCC(=O)O1)C/C(C)=C/CCc1ccoc1 | 9.6 | 0.2 | 2.2 | 10.6
C/C(=C\[C@@H](O)C/C(C)=C/CCc1ccoc1)CC[C@@H](O)[C@]1(C)CCC(=O)O1 [IRCIFORMONIN B] | 7.8 | 0.04 | 1 | 6.4
CC(=O)O[C@H](/C=C(\C)CC[C@@H](OC(C)=O)[C@]1(C)CCC(=O)O1)C/C(C)=C/CCc1ccoc1 [IRCIFORMONIN F] | 10.2 | 0.6 | 1.7 | 7
C/C(=C\[C@@H](O)C/C(C)=C/CCCC(=O)CO)CC[C@@H](O)[C@]1(C)CCC(=O)O1 [IRCINOLIN A] | > 20 | > 20 | > 20 | > 20
CC(=O)O[C@H](CC/C(C)=C/[C@@H](O)C/C(C)=C/CCc1ccoc1)[C@]1(C)CCC(=O)O1 | 5.4 | 0.03 | 0.5 | 1.1
